Data: patent publication US6335366B2, “Naphthyloxy acetic acid derivatives and a pharmaceutical composition comprising them as an active ingredient” (Ono Pharmaceutical Co., Ltd., priority 1996, dated 2002)

Key:
[1] = biological target: T1, prostanoide receptor subtype (mouse EP3α) (Mus musculus, UniProt P30557); assay: Binding assay using expression cell of prostanoide receptor subtype ([3H]-PGE2 competition, CHO cell membrane fraction); conditions: [3H]-PGE2 2.5 nM; membrane fraction of CHO cells expressing mouse EP3α; Ki = IC50/(1+([C]/Kd)); read-out: dissociation constant Ki
T1 construct: expressed in transfected cells; host or cells: CHO cells (membrane fraction)
T1 sequence (P30557 1-365): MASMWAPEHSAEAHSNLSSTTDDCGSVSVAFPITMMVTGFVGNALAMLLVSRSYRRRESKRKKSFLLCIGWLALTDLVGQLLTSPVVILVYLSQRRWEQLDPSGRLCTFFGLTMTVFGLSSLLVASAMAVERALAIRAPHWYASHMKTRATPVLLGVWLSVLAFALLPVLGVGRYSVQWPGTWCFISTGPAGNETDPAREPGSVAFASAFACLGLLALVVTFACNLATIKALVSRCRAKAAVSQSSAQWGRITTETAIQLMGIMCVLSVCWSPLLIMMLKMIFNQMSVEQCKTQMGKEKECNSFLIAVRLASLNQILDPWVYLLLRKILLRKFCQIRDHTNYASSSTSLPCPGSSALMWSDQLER
Method: For example, in standard laboratory test, the effects of the compounds of the present invention were confirmed by inhibitory effect on binding PGE2 using expression cell of receptor.
(I) Binding Assay using Expression Cell of Prostanoide Receptor Subtype
The preparation of membrane fraction was carried out according to the method of Sugimoto et al (J. Biol. Chem. 267, 6463-6466 (1992)), using expression CHO cell of prostanoide receptor subtype (mouse EP3α).
The standard assay mixture contained membrane fraction (0.5 mg/ml), [^3H]-PGE2 in a final volume of […] was incubated for 1 hour at room temperature. The reaction was terminated by addition of 3 ml of ice-cold buffer. The mixture was rapidly filtered through a glass filter (GF/B). The radioactivity associated with the filter was measured by liquid scintillation counting.
Kd and Bmax values were determined from Scatchard plots (Ann. N.Y. Acad. Sci., 51, 660 (1949)). Non-specific binding was calculated as the bond in the presence of an excess ([…]) of unlabeled PGE2. In the experiment for competition of specific [^3H]-PGE2 binding by the compounds of the present invention, [^3H]-PGE2 was added at a concentration of 2.5 nM and the compounds of the present invention were at a concentration of 1 mM. Buffer: 10 mM potassium phosphate (pH6.0), 1 mM EDTA, 10 mM MgCl2, 0.1 M NaCl.
The dissociation constant Ki (μM) of each compound was calculated by the following equation.

Row | Ki [1] [µM] | melting point [°C] | SMILES
1 | – | 186 to 190 | O=C(O)COc1cccc2c(CS(=O)(=O)CC(O)COc3ccccc3)cccc12 (stereo not shown) [3(7), 2-[5-(2RS-Hydroxy-3-phenoxypropylsulfonyl)methyl-1-naphthyloxy]acetic Acid]
2 | 2 | – | O=C(O)COc1cccc2c(CCCSCC(O)c3ccccc3)cccc12 (stereo not shown) [3(8), 2-{5-[3-(2RS-Hydroxy-2-phenylethylthio)propyl]-1-naphthyloxy}acetic Acid]
3 | 0.0086 | – | O=C(O)COc1cccc2c(CCCS(=O)(=O)/C=C/c3ccccc3)cccc12 [5(1), 2-[5-(3-Styrylsulfonylpropyl)-1-naphthyloxy]acetic Acid]
4 | 0.048 | – | O=C(O)COc1cccc2c(CCSCC(O)COc3ccccc3)cccc12 (stereo not shown) [compound 3]
5 | 0.08 | – | O=C(O)COc1cccc2c(CCC[S+]([O-])/C=C/c3ccccc3)cccc12 (stereo not shown) [compound 5]

Second part, the compound before the results:

Row | SMILES | Ki [1] [µM] | melting point [°C]
6 | O=C(O)COc1cccc2c(CCS(=O)(=O)CC(O)COc3ccccc3)cccc12 (stereo not shown) [3(2), 2-{5-[2-(2RS-Hydroxy-3-phenoxypropylsulfonyl)ethyl]-1-naphthyloxy}acetic Acid] | 0.0099 | –
7 | O=C(O)COc1cccc2c(CCSC[C@H](O)COc3ccccc3)cccc12 [3(3), 2-{5-[2-(2R-Hydroxy-3-phenoxypropylthio)ethyl]-1-naphthyloxy}acetic Acid] | – | 114 to 115.5
8 | O=C(O)COc1cccc2c(CCSCC(O)COc3ccccc3)cccc12 (stereo not drawn) [3(4), 2-{5-[2-(2S-Hydroxy-3-phenoxypropylthio)ethyl]-1-naphthyloxy}acetic Acid] | – | 114 to 115.5
9 | O=C(O)COc1cccc2c(CSCC(O)COc3ccccc3)cccc12 (stereo not shown) [3(5), 2-[5-(2RS-Hydroxy-3-phenoxypropylthio)methyl-1-naphthyloxy]acetic Acid] | – | 105 to 107
10 | O=C(O)COc1cccc2c(C[S+]([O-])CC(O)COc3ccccc3)cccc12 (stereo not shown) [3(6), 2-[5-(2RS-Hydroxy-3-phenoxypropylsulfinyl)methyl-1-naphthyloxy]acetic Acid] | 0.15 | –
